In US4971965A, “Antibiotics TAN-1057” (Takeda Chemical Industries, Ltd., priority 1988, dated 1990):
Values after ≈ are worked out from the molar mass of the structure shown. Where two headings read alike, the source gives them in different places.

Columns and labels:
Test in all cases: Antibacterial activity against clinically isolated S. aureus (agar dilution MIC, Table 2)
Type in all cases: cell-based
[1] = tested on: Staphylococcus aureus C7; details: Staphylococcus aureus
Description: (§1) DMPPC: Methicillin, KM: Kanamycin, GM: Gentamycin, EM: Erythromycin (Note
(§2) Determined by the agar dilution method. Medium: Mueller Hinton medium
(§3) (Difco, USA) Inoculum Size: 10^6 CFU/ml, 37° C.

[2] = tested on: Staphylococcus aureus N237; details: Staphylococcus aureus
Description: as §1, §2, §3

[3] = tested on: Staphylococcus aureus N247; details: Staphylococcus aureus
Description: as §1, §2, §3

[4] = tested on: Staphylococcus aureus N129; details: Staphylococcus aureus
Description: as §1, §2, §3

[5] = tested on: Staphylococcus aureus C10; details: Staphylococcus aureus
Description: as §1, §2, §3

[6] = tested on: Staphylococcus aureus TS-65; details: Staphylococcus aureus, TS65
Description: as §1, §2, §3

[7] = tested on: Staphylococcus aureus FDA 209P; details: Staphylococcus aureus, FDA209P
Description: as §1, §2, §3

[8] = tested on: Staphylococcus aureus C4; details: Staphylococcus aureus
Description: as §1, §2, §3

[9] = tested on: Staphylococcus aureus N262; details: Staphylococcus aureus
Description: as §1, §2, §3

[10] = tested on: Staphylococcus aureus N267; details: Staphylococcus aureus
Description: as §1, §2, §3

[11] = tested on: Staphylococcus aureus N235; details: Staphylococcus aureus
Description: as §1, §2, §3

[12] = tested on: Staphylococcus aureus TST-75; details: Staphylococcus aureus, TST75
Description: as §1, §2, §3

[13] = tested on: Staphylococcus aureus N51; details: Staphylococcus aureus
Description: as §1, §2, §3

[14] = tested on: Staphylococcus aureus N121; details: Staphylococcus aureus
Description: as §1, §2, §3

[15] = tested on: Staphylococcus aureus N176-3; details: Staphylococcus aureus, N1763
Description: as §1, §2, §3

[16] = tested on: Staphylococcus aureus N247-21; details: Staphylococcus aureus, N24721
Description: as §1, §2, §3

[17] = tested on: Staphylococcus aureus N326; details: Staphylococcus aureus
Description: as §1, §2, §3

[18] = tested on: Staphylococcus aureus N8; details: Staphylococcus aureus
Description: as §1, §2, §3

[19] = tested on: Staphylococcus aureus N83; details: Staphylococcus aureus
Description: as §1, §2, §3

[20] = tested on: Staphylococcus aureus N176-6; details: Staphylococcus aureus, N1766
Description: as §1, §2, §3

[21] = tested on: Staphylococcus aureus N62; details: Staphylococcus aureus
Description: as §1, §2, §3

[22] = tested on: Staphylococcus aureus C3; details: Staphylococcus aureus
Description: as §1, §2, §3

[23] = tested on: Staphylococcus aureus N176; details: Staphylococcus aureus
Description: as §1, §2, §3

[24] = tested on: Staphylococcus aureus N64; details: Staphylococcus aureus
Description: as §1, §2, §3

[25] = tested on: Staphylococcus aureus N91; details: Staphylococcus aureus
Description: as §1, §2, §3

[26] = tested on: Staphylococcus aureus N247-16; details: Staphylococcus aureus, N24716
Description: as §1, §2, §3

[27] = tested on: Staphylococcus aureus N28; details: Staphylococcus aureus
Description: as §1, §2, §3

Structure (SMILES): COc1cccc(OC)c1C(=O)N[C@@H]1C(=O)N2[C@@H]1SC(C)(C)[C@@H]2C(=O)O [DMPPC, Methicillin]
- MIC ([1]; strain C7, agar dilution, Mueller Hinton medium, 10^6 CFU/ml, read-out: MIC): 50 µg/mL (≈ 131 µM)
- MIC ([2]; strain N237, agar dilution, Mueller Hinton medium, 10^6 CFU/ml, read-out: MIC): 20 µg/mL (≈ 52.6 µM)
- MIC ([3]; strain N247, agar dilution, Mueller Hinton medium, 10^6 CFU/ml, read-out: MIC): 50 µg/mL (≈ 131 µM)
- MIC ([4]; strain N129, agar dilution, Mueller Hinton medium, 10^6 CFU/ml, read-out: MIC): 400 µg/mL (≈ 1050 µM)
- MIC ([5]; strain C10, agar dilution, Mueller Hinton medium, 10^6 CFU/ml, read-out: MIC): 800 µg/mL (≈ 2100 µM)
- MIC ([6]; strain TS-65, agar dilution, Mueller Hinton medium, 10^6 CFU/ml, read-out: MIC): > 1600 µg/mL
- MIC ([7]; strain FDA 209P, agar dilution, Mueller Hinton medium, 10^6 CFU/ml, read-out: MIC): 1.56 µg/mL (≈ 4.1 µM)
- MIC ([8]; strain C4, agar dilution, Mueller Hinton medium, 10^6 CFU/ml, read-out: MIC): 50 µg/mL (≈ 131 µM)
- MIC ([9]; strain N262, agar dilution, Mueller Hinton medium, 10^6 CFU/ml, read-out: MIC): 100 µg/mL (≈ 263 µM)
- MIC ([10]; strain N267, agar dilution, Mueller Hinton medium, 10^6 CFU/ml, read-out: MIC): 100 µg/mL (≈ 263 µM)
- MIC ([11]; strain N235, agar dilution, Mueller Hinton medium, 10^6 CFU/ml, read-out: MIC): 1.56 µg/mL (≈ 4.1 µM)
- MIC ([12]; strain TST-75, agar dilution, Mueller Hinton medium, 10^6 CFU/ml, read-out: MIC): 12.5 µg/mL (≈ 32.9 µM)
- MIC ([13]; strain N51, agar dilution, Mueller Hinton medium, 10^6 CFU/ml, read-out: MIC): 1.56 µg/mL (≈ 4.1 µM)
- MIC ([14]; strain N121, agar dilution, Mueller Hinton medium, 10^6 CFU/ml, read-out: MIC): 50 µg/mL (≈ 131 µM)
- MIC ([15]; strain N176-3, agar dilution, Mueller Hinton medium, 10^6 CFU/ml, read-out: MIC): 50 µg/mL (≈ 131 µM)
- MIC ([16]; strain N247-21, agar dilution, Mueller Hinton medium, 10^6 CFU/ml, read-out: MIC): 200 µg/mL (≈ 526 µM)
- MIC ([17]; strain N326, agar dilution, Mueller Hinton medium, 10^6 CFU/ml, read-out: MIC): 1600 µg/mL (≈ 4210 µM)
- MIC ([18]; strain N8, agar dilution, Mueller Hinton medium, 10^6 CFU/ml, read-out: MIC): 1.56 µg/mL (≈ 4.1 µM)
- MIC ([19]; strain N83, agar dilution, Mueller Hinton medium, 10^6 CFU/ml, read-out: MIC): 3.13 µg/mL (≈ 8.23 µM)
- MIC ([20]; strain N176-6, agar dilution, Mueller Hinton medium, 10^6 CFU/ml, read-out: MIC): 200 µg/mL (≈ 526 µM)
- MIC ([21]; strain N62, agar dilution, Mueller Hinton medium, 10^6 CFU/ml, read-out: MIC): 3.13 µg/mL (≈ 8.23 µM)
- MIC ([22]; strain C3, agar dilution, Mueller Hinton medium, 10^6 CFU/ml, read-out: MIC): 50 µg/mL (≈ 131 µM)
- MIC ([23]; strain N176, agar dilution, Mueller Hinton medium, 10^6 CFU/ml, read-out: MIC): 12.5 µg/mL (≈ 32.9 µM)
- MIC ([24]; strain N64, agar dilution, Mueller Hinton medium, 10^6 CFU/ml, read-out: MIC): 1600 µg/mL (≈ 4210 µM)
- MIC ([25]; strain N91, agar dilution, Mueller Hinton medium, 10^6 CFU/ml, read-out: MIC): 1.56 µg/mL (≈ 4.1 µM)
- MIC ([26]; strain N247-16, agar dilution, Mueller Hinton medium, 10^6 CFU/ml, read-out: MIC): > 1600 µg/mL
- MIC ([27]; strain N28, agar dilution, Mueller Hinton medium, 10^6 CFU/ml, read-out: MIC): 1600 µg/mL (≈ 4210 µM)

Structure (SMILES): CC[C@H]1OC(=O)[C@H](C)[C@@H](O[C@H]2C[C@@](C)(OC)[C@@H](O)[C@H](C)O2)[C@H](C)[C@@H](O[C@@H]2O[C@H](C)C[C@H](N(C)C)[C@H]2O)[C@](C)(O)C[C@@H](C)C(=O)[C@H](C)[C@@H](O)[C@]1(C)O [EM, Erythromycin]
- MIC ([1]; C7): 12.5 µg/mL (≈ 17 µM)
- MIC ([2]; N237): > 100 µg/mL
- MIC ([3]; N247): 6.25 µg/mL (≈ 8.52 µM)
- MIC ([4]; N129): 0.39 µg/mL (≈ 0.531 µM)
- MIC ([5]; C10): > 100 µg/mL
- MIC [6]: > 100 µg/mL
- MIC [7]: 0.39 µg/mL (≈ 0.531 µM)
- MIC ([8]; C4): 0.39 µg/mL (≈ 0.531 µM)
- MIC ([9]; N262): > 100 µg/mL
- MIC ([10]; N267): > 100 µg/mL
- MIC ([11]; N235): > 100 µg/mL
- MIC [12]: > 100 µg/mL
- MIC ([13]; N51): 0.39 µg/mL (≈ 0.531 µM)
- MIC ([14]; N121): 0.39 µg/mL (≈ 0.531 µM)
- MIC [15]: > 100 µg/mL
- MIC [16]: 6.25 µg/mL (≈ 8.52 µM)
- MIC ([17]; N326): > 100 µg/mL
- MIC ([18]; N8): > 100 µg/mL
- MIC ([19]; N83): > 100 µg/mL
- MIC [20]: > 100 µg/mL
- MIC ([21]; N62): > 100 µg/mL
- MIC ([22]; C3): > 100 µg/mL
- MIC ([23]; N176): > 100 µg/mL
- MIC ([24]; N64): > 100 µg/mL
- MIC ([25]; N91): 0.39 µg/mL (≈ 0.531 µM)
- MIC [26]: 3.13 µg/mL (≈ 4.26 µM)
- MIC ([27]; N28): > 100 µg/mL

Structure (SMILES): NC[C@H]1O[C@H](O[C@H]2[C@H](O)[C@@H](O[C@H]3O[C@H](CO)[C@@H](O)[C@H](N)[C@H]3O)[C@H](N)C[C@@H]2N)[C@H](O)[C@@H](O)[C@@H]1O [KM, Kanamycin]
- MIC ([1]; C7): > 100 µg/mL
- MIC ([2]; N237): > 100 µg/mL
- MIC ([3]; N247): > 100 µg/mL
- MIC ([4]; N129): > 100 µg/mL
- MIC ([5]; C10): > 100 µg/mL
- MIC [6]: > 100 µg/mL
- MIC [7]: 0.39 µg/mL (≈ 0.805 µM)
- MIC ([8]; C4): > 100 µg/mL
- MIC ([9]; N262): > 100 µg/mL
- MIC ([10]; N267): > 100 µg/mL
- MIC ([11]; N235): 100 µg/mL (≈ 206 µM)
- MIC [12]: > 100 µg/mL
- MIC ([13]; N51): 3.13 µg/mL (≈ 6.46 µM)
- MIC ([14]; N121): > 100 µg/mL
- MIC [15]: 1.56 µg/mL (≈ 3.22 µM)
- MIC [16]: > 100 µg/mL
- MIC ([17]; N326): > 100 µg/mL
- MIC ([18]; N8): 1.56 µg/mL (≈ 3.22 µM)
- MIC ([19]; N83): > 100 µg/mL
- MIC [20]: 1.56 µg/mL (≈ 3.22 µM)
- MIC ([21]; N62): 25 µg/mL (≈ 51.6 µM)
- MIC ([22]; C3): > 100 µg/mL
- MIC ([23]; N176): 3.13 µg/mL (≈ 6.46 µM)
- MIC ([24]; N64): > 100 µg/mL
- MIC ([25]; N91): > 100 µg/mL
- MIC [26]: > 100 µg/mL
- MIC ([27]; N28): > 100 µg/mL
